# Data published in patent US12043600B2, “Microbiocidal compounds” (SYNGENTA CROP PROTECTION AG, priority 2018, dated 2024).
# Read-outs that look alike come from different tables or passages of the source.
# Key:
# [1] = system: Glomerella lagenarium (Colletotrichum lagenarium); experiment: Glomerella lagenarium (Colletotrichum lagenarium)/Liquid Culture (Anthracnose); type: cell-based; details: Colletotrichum orbiculare, liquid culture, compared to untreated control
# [2] = system: Monographella nivalis (Microdochium nivale); experiment: Monographella nivalis (Microdochium nivale)/Liquid Culture (Foot Rot Cereals); type: cell-based; details: liquid culture, compared to untreated control
# Experimental: (§1) Conidia of the fungus from cryogenic storage are directly mixed into nutrient broth (PDB potato dextrose broth). After placing a (DMSO) solution of test compound into a microtiter plate (96-well format), the nutrient broth containing the fungal spores is added.
# [3] = system: Mycosphaerella arachidis (Cercospora arachidicola); experiment: Mycosphaerella arachidis (Cercospora arachidicola)/Liquid Culture (Early Leaf Spot); type: cell-based; details: liquid culture, compared to untreated control
# Experimental: as §1
# [4] = system: Mycosphaerella graminicola (Septoria tritici); experiment: Mycosphaerella graminicola (Septoria tritici)/Liquid Culture (Septoria Blotch); type: cell-based; details: Zymoseptoria tritici; for inhibition of growth at 20 ppm: liquid culture, compared to untreated control
# Experimental: Conidia of the fungus from cryogenic storage are directly mixed into nutrient broth (PDB potato dextrose broth). After placing a (DMSO) solution of test compound into a microtiter plate (96-well format), the nutrient broth containing the fungal spores is added. […] The data are presented as the percentage of disease control of each compound for the biological tests against G. lagenarium (Example B3), P. recondita preventative (Example B13), P. teres (Example B15) and M. graminicola (Example B19) as described above. The testing rates of each biological test is specifically described in table C1 below.
# [5] = system: Puccinia recondita f. sp. tritici; experiment: Puccinia recondita f. sp. tritici/Wheat/Leaf Disc Preventative (Brown Rust); type: in vivo; details: foliar; for pest or weed control at 200 ppm: wheat leaf disc preventative, compared to untreated control, read-out: control of Puccinia recondita f. sp. tritici
# [6] = system: Magnaporthe grisea (Pyricularia oryzae); experiment: whole plant or invertebrate; type: in vivo; details: foliar, read-out: control of Magnaporthe grisea
# [7] = system: Phaeosphaeria nodorum (Septoria nodorum); experiment: Phaeosphaeria nodorum (Septoria nodorum)/Wheat/Leaf Disc Preventative (Glume Blotch); type: in vivo; details: Parastagonospora nodorum, foliar, wheat leaf disc preventative, compared to untreated control
# Experimental: Wheat leaf segments cv. Kanzler are placed on agar in a multiwell plate (24-well format) and sprayed with the formulated test compound diluted in water. The leaf disks are inoculated with a spore suspension of the fungus 2 days after application. The inoculated test leaf disks are incubated at 20° C. and 75% rh under a light regime of 12 h light/12 h darkness in a climate cabinet and the activity of a compound is assessed as percent disease control compared to untreated when an appropriate level of disease damage appears in untreated check leaf disks (5-7 days after application).
# Plasmopara viticola = experiment: whole plant or invertebrate; type: in vivo; details: foliar, read-out: control of Plasmopara viticola
# Phakopsora pachyrhizi = experiment: Phakopsora pachyrhizi/Soybean/Preventative (Soybean Rust); type: in vivo; details: 288 h
# Phytophthora infestans = experiment: whole plant or invertebrate; type: in vivo; details: in Solanum lycopersicum, foliar, read-out: control of Phytophthora infestans
# [8] = system: Blumeria graminis f. sp. tritici (Erysiphe graminis f. sp. tritici); experiment: Blumeria graminis f. sp. tritici/Wheat/Leaf Disc Preventative (Powdery Mildew on Wheat); type: in vivo; details: foliar, wheat leaf disc preventative, compared to untreated control
# Experimental: Wheat leaf segments cv. Kanzler are placed on agar in a multiwell plate (24-well format) and sprayed with the formulated test compound diluted in water. The leaf disks are inoculated by shaking powdery mildew infected plants above the test plates 1 day after application. The inoculated leaf disks are incubated at 20° C. and 60% rh under a light regime of 24 h darkness followed by 12 h light/12 h darkness in a climate chamber and the activity of a compound is assessed as percent disease control compared to untreated when an appropriate level of disease damage appears on untreated check leaf segments (6-8 days after application).
# [9] = Phakopsora pachyrhizi (Soybean rust)
# [10] = Phakopsora pachyrhizi (Soybean rust), read-out: control (%)
# [11] = foliar, soybean leaf disc preventative, compared to untreated control, read-out: control of Phakopsora pachyrhizi
Compound,inhibition of growth at 20 ppm [2] [%],inhibition of growth at 20 ppm [3] [%],inhibition of growth at 20 ppm [4] [%],melting point [°C],pest or weed control at 200 ppm [5] [%],pest or weed control at 200 ppm [7] [%],pest or weed control at 200 ppm (Plasmopara viticola) [%],pest or weed control at 200 ppm (Phytophthora infestans) [%],pest or weed control at 200 ppm [8] [%],further results
"CO/C=C(\Oc1cccc(-n2ccc(C3CC3)n2)c1)C(=O)OC [Compound E-14, methyl (Z)-2-[3-(3-cyclopropylpyrazol-1-yl)phenoxy]-3-methoxy-prop-2-enoate]",≥ 80,≥ 80,≥ 80,,,,,,,inhibition of growth at 20 ppm [1]: ≥ 80%
CCCc1ccn(-c2ccc(C)c(O/C(=C\OC)C(=O)OC)c2)n1 [drawing 151],,,,,,,,,,"pest or weed control at 60 ppm ([5]; P. recondita prev (B13), 60 ppm, read-out: Disease control (%)): 70%; inhibition of growth at 6 ppm ([4]; M. graminicola (B19), 6 ppm, read-out: Disease control (%)): 100%"
"CCc1ccc(-n2ccc(C)n2)cc1O/C(=C\OC)C(=O)OC [Compound E-107, methyl (Z)-2-[2-ethyl-5-(3-methylpyrazol-1-yl)phenoxy]-3-methoxy-prop-2-enoate]",,,≥ 80,169 to 171,≥ 80,,,,,
"CO/C=C(\Oc1cc(-n2ncc(C(F)(F)F)n2)ccc1C)C(=O)OC [Compound F-6, methyl (Z)-3-methoxy-2-[2-methyl-5-[4-(trifluoromethyl)triazol-2-yl]phenoxy]prop-2-enoate]",≥ 80,≥ 80,≥ 80,107 to 109,,≥ 80,≥ 80,≥ 80,≥ 80,inhibition of growth at 20 ppm [1]: ≥ 80%; pest or weed control at 200 ppm [6]: ≥ 80%; pest or weed control at 0.6 ppm (Phakopsora pachyrhizi; [9]): 0%; pest or weed control at 2 ppm (Phakopsora pachyrhizi; [9]): 0%; pest or weed control at 6 ppm (Phakopsora pachyrhizi; [9]): 20%; pest or weed control at 20 ppm (Phakopsora pachyrhizi; [9]): 80%; pest or weed control at 60 ppm (Phakopsora pachyrhizi; [9]): 100%; pest or weed control at 200 ppm (Phakopsora pachyrhizi; [10]): 100%
"CO/C=C(\Oc1cc(-n2ccc(C(F)(F)F)n2)cc(F)c1C)C(=O)OC [Compound E-3, methyl (Z)-2-[3-fluoro-2-methyl-5-[3-(trifluoromethyl)pyrazol-1-yl]phenoxy]-3-methoxy-prop-2-enoate]",≥ 80,≥ 80,≥ 80,133 to 135,≥ 80,≥ 80,≥ 80,≥ 80,≥ 80,pest or weed control at 200 ppm (Phakopsora pachyrhizi; [11]): ≥ 50%
"CO/C=C(\Oc1cc(-n2cccc2)ccc1C)C(=O)OC [Compound X-2, reference compound]",,,,,,,,,,pest or weed control at 0.6 ppm (Phakopsora pachyrhizi; [9]): 0%; pest or weed control at 2 ppm (Phakopsora pachyrhizi; [9]): 0%; pest or weed control at 6 ppm (Phakopsora pachyrhizi; [9]): 0%; pest or weed control at 20 ppm (Phakopsora pachyrhizi; [9]): 0%; pest or weed control at 60 ppm (Phakopsora pachyrhizi; [9]): 70%; pest or weed control at 200 ppm (Phakopsora pachyrhizi; [10]): 100%
"CO/C=C(\Oc1cc(-n2ccc(C(F)(F)F)n2)cc(OC)c1C)C(=O)OC [Compound E-22, methyl (Z)-3-methoxy-2-[3-methoxy-2-methyl-5-[3-(trifluoromethyl)pyrazol-1-yl]phenoxy]prop-2-enoate]",≥ 80,≥ 80,≥ 80,153 to 156,≥ 80,,,≥ 80,≥ 80,
"CO/C=C(\Oc1cc(-n2cc(Br)c(C3CCCCC3)n2)ccc1C)C(=O)OC [Compound E-10, methyl (Z)-2-[5-(4-bromo-3-cyclohexyl-pyrazol-1-yl)-2-methyl-phenoxy]-3-methoxy-prop-2-enoate]",≥ 80,≥ 80,≥ 80,120 to 126,,,,,,pest or weed control at 200 ppm [6]: ≥ 80%
"CO/C=C(\Oc1cc(-n2cc(Cl)c(Cl)n2)ccc1C)C(=O)OC [Compound E-111, methyl (Z)-2-[5-(3,4-dichloropyrazol-1-yl)-2-methyl-phenoxy]-3-methoxy-prop-2-enoate]",≥ 80,≥ 80,,140 to 144,,≥ 80,≥ 80,,≥ 80,inhibition of growth at 20 ppm [1]: ≥ 80%
"CO/C=C(\Oc1cc(-n2ccc(Br)n2)ccc1Br)C(=O)OC [Compound E-84, methyl (Z)-2-[2-bromo-5-(3-bromopyrazol-1-yl)phenoxy]-3-methoxy-prop-2-enoate]",≥ 80,≥ 80,≥ 80,,≥ 80,≥ 80,≥ 80,,≥ 80,inhibition of growth at 20 ppm [1]: ≥ 80%; pest or weed control at 200 ppm (Phakopsora pachyrhizi; [11]): ≥ 50%
"CO/C=C(\Oc1cc(-c2cccc(C(F)(F)F)n2)ccc1C)C(=O)OC [Compound X-3, reference compound]",,,,,,,,,,pest or weed control at 0.6 ppm (Phakopsora pachyrhizi; [9]): 0%; pest or weed control at 2 ppm (Phakopsora pachyrhizi; [9]): 0%; pest or weed control at 6 ppm (Phakopsora pachyrhizi; [9]): 0%; pest or weed control at 20 ppm (Phakopsora pachyrhizi; [9]): 10%; pest or weed control at 60 ppm (Phakopsora pachyrhizi; [9]): 50%; pest or weed control at 200 ppm (Phakopsora pachyrhizi; [10]): 85%
"CO/C=C(\Oc1cc(-n2ccc(C)n2)ccc1C1CC1)C(=O)OC [Compound E-106, methyl (Z)-2-[2-cyclopropyl-5-(3-methylpyrazol-1-yl)phenoxy]-3-methoxy-prop-2-enoate]",,,,189 to 191,≥ 80,,≥ 80,,,
"CCCOc1ccn(-c2ccc(C)c(O/C(=C\OC)C(=O)OC)c2)n1 [Compound E-13, methyl (Z)-3-methoxy-2-[2-methyl-5-(3-propoxypyrazol-1-yl)phenoxy]prop-2-enoate]",,,,85 to 87,,,,,,
"CO/C=C(\Oc1cc(-n2ccc(CSC)n2)ccc1C)C(=O)OC [Compound E-76, methyl (Z)-3-methoxy-2-[2-methyl-5-[3-(methylsulfanylmethyl)pyrazol-1-yl]phenoxy]prop-2-enoate]",≥ 80,≥ 80,≥ 80,78 to 80,≥ 80,,≥ 80,≥ 80,,pest or weed control at 200 ppm [6]: ≥ 80%
"CO/C=C(\Oc1cccc(-n2ccc(C)n2)c1)C(=O)OC [Compound E-9, methyl (Z)-3-methoxy-2-[3-(3-methylpyrazol-1-yl)phenoxy]prop-2-enoate]",≥ 80,≥ 80,≥ 80,,,,,,,
"CCC(CC)c1ccn(-c2ccc(C)c(O/C(=C\OC)C(=O)OC)c2)n1 [Compound E-4, methyl (Z)-2-[5-[3-(1-ethylpropyl)pyrazol-1-yl]-2-methyl-phenoxy]-3-methoxy-prop-2-enoate]",≥ 80,≥ 80,≥ 80,108 to 111,≥ 80,≥ 80,,≥ 80,≥ 80,pest or weed control at 200 ppm (Phakopsora pachyrhizi; [11]): ≥ 50%
